In brackets after ≈: the same amount, converted by molar mass.
system: measles virus; test: microbe, parasite or virus in culture; conditions: Measles morbillivirus, 24 h

**Q.** For `CCOc1nn(-c2nccc(C)n2)c(C)c1Cc1ccccc1` [example 113, 2-(4-benzyl-3-ethoxy-5-methyl-1H-pyrazol-1-yl)-4-methylpyrimidine], which MIC50 is on record?
**A.** 0.5 to 5 µM (≈ 0.154 to 1.54 µg/mL)

**Q.** Which MIC50 does the source give for `CCCCc1c(OCC)nn(-c2ncc(CC)cn2)c1C` [example 114, 2-(4-butyl-3-ethoxy-5-methyl-1H-pyrazol-1-yl)-5-ethylpyrimidine] here?
**A.** 0.5 to 5 µM (≈ 0.144 to 1.44 µg/mL)

**Q.** For `CCOc1nn(-c2ncc(CC)cn2)c(CN2CCOCC2)c1Cc1ccccc1` [example 115, 4-((4-benzyl-3-ethoxy-1-(5-ethylpyrimidin-2-yl)-1H-pyrazol-5-yl)methyl)morpholine], which MIC50 is on record?
**A.** > 5 µM

**Q.** For `Cc1cnc(-n2nc(OC(C)C)c(Oc3c(F)cccc3F)c2C)nc1O` [example 116, 2-(4-(2,6-difluorophenoxy)-3-isopropoxy-5-methyl-1H-pyrazol-1-yl)-5-methylpyrimidin-4-ol], which MIC50 is on record?
**A.** 0.05 to 0.5 µM (≈ 0.0188 to 0.188 µg/mL)

**Q.** Which MIC50 does the source give for `CCc1cnc(-n2nc(OC(C)C)c(Oc3c(F)cccc3F)c2C)nc1O` [example 117, 2-(4-(2,6-difluorophenoxy)-3-isopropoxy-5-methyl-1H-pyrazol-1-yl)-5-ethylpyrimidin-4-ol] here?
**A.** 0.0005 to 0.05 µM (≈ 0.000195 to 0.0195 µg/mL)

**Q.** With `CCCc1cnc(-n2nc(OC(C)C)c(Oc3c(F)cccc3F)c2C)nc1O` [example 117A, 2-(4-(2,6-difluorophenoxy)-3-isopropoxy-5-methyl-1H-pyrazol-1-yl)-5-propylpyrimidin-4-ol] as the compound, how does the MIC50 read?
**A.** 0.05 to 0.5 µM (≈ 0.0202 to 0.202 µg/mL)

**Q.** Which MIC50 does the source give for `CCc1nnc(-n2nc(OC(C)C)c(Oc3c(F)cccc3F)c2C)nc1O` [example 118, 3-(4-(2,6-difluorophenoxy)-3-isopropoxy-5-methyl-1H-pyrazol-1-yl)-6-ethyl-1,2,4-triazin-5-ol] here?
**A.** 0.0005 to 0.05 µM (≈ 0.000196 to 0.0196 µg/mL)

**Q.** `c1ccc(Oc2cn(-c3ncc(C4CC4)cn3)nc2C2CC2)cc1` [example 119, 5-cyclopropyl-2-(3-cyclopropyl-4-phenoxy-1H-pyrazol-1-yl)pyrimidine] was tested. Which MIC50 did it give?
**A.** 0.0005 to 0.05 µM (≈ 0.000159 to 0.0159 µg/mL)

**Q.** How did the MIC50 turn out when `c1ccc(Oc2cn(-c3ccc(C4CC4)cn3)nc2C2CC2)cc1` [example 120, 5-cyclopropyl-2-(3-cyclopropyl-4-phenoxy-1H-pyrazol-1-yl)pyridine] was run?
**A.** 0.05 to 0.5 µM (≈ 0.0159 to 0.159 µg/mL)

**Q.** How did the MIC50 turn out when `CCc1cnc(-n2nc(CC(C)C)c(Cc3ccccc3)c2C)nc1` [example 121, 2-(4-benzyl-3-isobutyl-5-methyl-1H-pyrazol-1-yl)-5-ethylpyrimidine] was run?
**A.** 0.0005 to 0.05 µM (≈ 0.000167 to 0.0167 µg/mL)

**Q.** For `CCOc1nn(-c2ncccn2)c(C)c1Cc1ccccc1` [example 123, 2-(4-benzyl-3-ethoxy-5-methyl-1H-pyrazol-1-yl)pyrimidine], which MIC50 is on record?
**A.** 0.5 to 5 µM (≈ 0.147 to 1.47 µg/mL)

**Q.** How did the MIC50 turn out when `CCOc1nn(-c2ccc(C)nc2)c(C)c1Cc1ccccc1` [example 124, 5-(4-benzyl-3-ethoxy-5-methyl-1H-pyrazol-1-yl)-2-methylpyridine] was run?
**A.** 0.5 to 5 µM (≈ 0.154 to 1.54 µg/mL)

**Q.** `CCOc1nn(-c2ccc(OC)cn2)c(C)c1Cc1ccccc1` [example 125, 2-(4-benzyl-3-ethoxy-5-methyl-1H-pyrazol-1-yl)-5-methoxypyridine] was tested. Which MIC50 did it give?
**A.** 0.5 to 5 µM (≈ 0.162 to 1.62 µg/mL)

**Q.** `COc1ccc(-n2nc(OC(C)C)c(Oc3c(F)cccc3F)c2C)nc1` [example 126, 2-(4-(2,6-difluorophenoxy)-3-isopropoxy-5-methyl-1H-pyrazol-1-yl)-5-methoxypyridine] was tested. Which MIC50 did it give?
**A.** 0.05 to 0.5 µM (≈ 0.0188 to 0.188 µg/mL)

**Q.** `CCOc1nn(-c2ccc(C)cn2)c(C)c1Oc1ccccc1` [example 127, 2-(3-ethoxy-5-methyl-4-phenoxy-1H-pyrazol-1-yl)-5-methylpyridine] was tested. Which MIC50 did it give?
**A.** 0.5 to 5 µM (≈ 0.155 to 1.55 µg/mL)

**Q.** With `Cc1ccc(-n2nc(OC(C)C)c(Oc3c(F)cccc3F)c2C)cn1` [example 128, 5-(4-(2,6-difluorophenoxy)-3-isopropoxy-5-methyl-1H-pyrazol-1-yl)-2-methylpyridine] as the compound, how does the MIC50 read?
**A.** 0.0005 to 0.05 µM (≈ 0.00018 to 0.018 µg/mL)

**Q.** How did the MIC50 turn out when `CCc1ccc(-n2nc(OC(C)C)c(Oc3c(F)cccc3F)c2C)cn1` [example 129, 5-(4-(2,6-difluorophenoxy)-3-isopropoxy-5-methyl-1H-pyrazol-1-yl)-2-ethylpyridine] was run?
**A.** 0.0005 to 0.05 µM (≈ 0.000187 to 0.0187 µg/mL)

**Q.** Which MIC50 does the source give for `COc1ccc(-n2nc(OC(C)C)c(Oc3c(F)cccc3F)c2C)cn1` [example 130, 5-(4-(2,6-difluorophenoxy)-3-isopropoxy-5-methyl-1H-pyrazol-1-yl)-2-methoxypyridine] here?
**A.** 0.5 to 5 µM (≈ 0.188 to 1.88 µg/mL)

**Q.** Which MIC50 does the source give for `Cc1c(Oc2c(F)cccc2F)c(OC(C)C)nn1-c1cnc(C(C)(C)C)nc1` [example 131, 2-tert-butyl-5-(4-(2,6-difluorophenoxy)-3-isopropoxy-5-methyl-1H-pyrazol-1-yl)pyrimidine] here?
**A.** 0.05 to 0.5 µM (≈ 0.0201 to 0.201 µg/mL)

**Q.** Which MIC50 does the source give for `CCc1ccc(-n2nc(OC(C)C)c(Cc3ccccc3)c2C)cc1` [example 132, 4-benzyl-1-(4-ethylphenyl)-3-isopropoxy-5-methyl-1H-pyrazole] here?
**A.** 0.5 to 5 µM (≈ 0.167 to 1.67 µg/mL)

**Q.** How did the MIC50 turn out when `Cc1c(Oc2c(F)cccc2F)c(OC(C)C)nn1-c1cnc(C2CC2)nc1` [example 133, 2-cyclopropyl-5-(4-(2,6-difluorophenoxy)-3-isopropoxy-5-methyl-1H-pyrazol-1-yl)pyrimidine] was run?
**A.** 0.05 to 0.5 µM (≈ 0.0193 to 0.193 µg/mL)

**Q.** How did the MIC50 turn out when `CCOc1nn(-c2ccccc2)c(C)c1Cc1ccccc1` [example 134, 4-benzyl-3-ethoxy-5-methyl-1-phenyl-1H-pyrazole] was run?
**A.** 0.5 to 5 µM (≈ 0.146 to 1.46 µg/mL)

**Q.** For `CCc1cnc(-n2[nH]c(=O)c(Cc3ccccc3)c2C)nc1` [example 135, 4-benzyl-1-(5-ethylpyrimidin-2-yl)-5-methyl-1H-pyrazol-3(2H)-one], which MIC50 is on record?
**A.** 0.5 to 5 µM (≈ 0.147 to 1.47 µg/mL)

**Q.** `Cc1c(Cc2ccccc2)c(O)nn1-c1ncc(C2CC2)cn1` [example 136, 4-benzyl-1-(5-cyclopropylpyrimidin-2-yl)-5-methyl-1H-pyrazol-3-ol] was tested. Which MIC50 did it give?
**A.** 0.5 to 5 µM (≈ 0.153 to 1.53 µg/mL)

**Q.** How did the MIC50 turn out when `COc1nn(-c2ccc(C)cn2)c(C)c1Cc1ccccc1` [example 137, 2-(4-benzyl-3-methoxy-5-methyl-1H-pyrazol-1-yl)-5-methylpyridine] was run?
**A.** 0.5 to 5 µM (≈ 0.147 to 1.47 µg/mL)

**Q.** With `COc1nn(-c2ncc(C3CC3)cn2)c(C)c1Cc1ccccc1` [example 138, 2-(4-benzyl-3-methoxy-5-methyl-1H-pyrazol-1-yl)-5-cyclopropylpyrimidine] as the compound, how does the MIC50 read?
**A.** 0.05 to 0.5 µM (≈ 0.016 to 0.16 µg/mL)

**Q.** For `CCc1cnc(-n2nc(OC(C)C)c(Cc3ccccc3)c2C)nc1` [example 139, 2-(4-benzyl-3-isopropoxy-5-methyl-1H-pyrazol-1-yl)-5-ethylpyrimidine], which MIC50 is on record?
**A.** 0.0005 to 0.05 µM (≈ 0.000168 to 0.0168 µg/mL)

**Q.** With `CCc1cnc(-n2nc(OCCCN(C)C)c(Cc3ccccc3)c2C)nc1` [example 140, 3-(4-benzyl-1-(5-ethylpyrimidin-2-yl)-5-methyl-1H-pyrazol-3-yloxy)-N,N-dimethylpropan-1-amine] as the compound, how does the MIC50 read?
**A.** 0.5 to 5 µM (≈ 0.19 to 1.9 µg/mL)

**Q.** How did the MIC50 turn out when `CCC(CC)Oc1nn(-c2ncc(C3CC3)cn2)c(C)c1Cc1ccccc1` [example 141, 2-(4-benzyl-5-methyl-3-(pentan-3-yloxy)-1H-pyrazol-1-yl)-5-cyclopropylpyrimidine] was run?
**A.** 0.0005 to 0.05 µM (≈ 0.000188 to 0.0188 µg/mL)

**Q.** How did the MIC50 turn out when `CCC(C)Oc1nn(-c2ncc(C3CC3)cn2)c(C)c1Cc1ccccc1` (centres unmarked) [example 142, 2-(4-benzyl-3-sec-butoxy-5-methyl-1H-pyrazol-1-yl)-5-cyclopropylpyrimidine] was run?
**A.** 0.0005 to 0.05 µM (≈ 0.000181 to 0.0181 µg/mL)

**Q.** Which MIC50 does the source give for `COc1cc(-c2ccc(Cl)c(Cl)c2)n(-c2ccccn2)n1` [example 143, 2-(5-(3,4-dichlorophenyl)-3-methoxy-1H-pyrazol-1-yl)pyridine] here?
**A.** > 5 µM

**Q.** With `COc1cc(-c2ccc(Cl)cc2Cl)n(-c2ccccn2)n1` [example 144, 2-(5-(2,4-dichlorophenyl)-3-methoxy-1H-pyrazol-1-yl)pyridine] as the compound, how does the MIC50 read?
**A.** > 5 µM

**Q.** For `CCOc1cc(-c2ccc(OC)cc2)n(-c2ccccn2)n1` [example 145, 2-(3-ethoxy-5-(4-methoxyphenyl)-1H-pyrazol-1-yl)pyridine], which MIC50 is on record?
**A.** > 5 µM

**Q.** How did the MIC50 turn out when `COc1cc(-c2ccc(C(C)(C)C)cc2)n(-c2ccccn2)n1` [example 146, 2-(5-(4-tert-butylphenyl)-3-methoxy-1H-pyrazol-1-yl)pyridine] was run?
**A.** > 5 µM

**Q.** Which MIC50 does the source give for `CCOc1cc(-c2ccc(Cl)cc2)n(-c2ccccn2)n1` [example 147, 2-(5-(4-chlorophenyl)-3-ethoxy-1H-pyrazol-1-yl)pyridine] here?
**A.** > 5 µM

**Q.** `COc1cccc(Cc2cc(OC)nn2-c2ccccn2)c1` [example 148, 2-(3-methoxy-5-(3-methoxybenzyl)-1H-pyrazol-1-yl)pyridine] was tested. Which MIC50 did it give?
**A.** > 5 µM

**Q.** Which MIC50 does the source give for `CCOc1cc(C(=O)c2ccc(Cl)cc2)n(-c2ccccn2)n1` [example 149, (4-chlorophenyl)(3-ethoxy-1-(pyridin-2-yl)-1H-pyrazol-5-yl)methanone] here?
**A.** > 5 µM

**Q.** `CCOc1nn(-c2ncc(CC)cn2)c(C)c1C(=O)c1ccccc1` [example 150, (3-ethoxy-1-(5-ethylpyrimidin-2-yl)-5-methyl-1H-pyrazol-4-yl)(phenyl)methanone] was tested. Which MIC50 did it give?
**A.** 0.5 to 5 µM (≈ 0.168 to 1.68 µg/mL)

**Q.** `CCOc1nn(-c2ccc(C3CC3)cn2)c(C)c1C(=O)c1ccccc1` [example 151, (1-(5-cyclopropylpyridin-2-yl)-3-ethoxy-5-methyl-1H-pyrazol-4-yl)(phenyl)methanone] was tested. Which MIC50 did it give?
**A.** 0.05 to 0.5 µM (≈ 0.0174 to 0.174 µg/mL)

**Q.** `CCOc1nn(-c2ncc(CC)cn2)c(C)c1Sc1ccccc1` [example 152, 2-(3-ethoxy-5-methyl-4-(phenylthio)-1H-pyrazol-1-yl)-5-ethylpyrimidine] was tested. Which MIC50 did it give?
**A.** 0.05 to 0.5 µM (≈ 0.017 to 0.17 µg/mL)

**Q.** For `CCOc1nn(-c2ncc(CC)cn2)c(C)c1-c1ccccc1` [example 153, 2-(3-ethoxy-5-methyl-4-phenyl-1H-pyrazol-1-yl)-5-ethylpyrimidine], which MIC50 is on record?
**A.** 0.5 to 5 µM (≈ 0.154 to 1.54 µg/mL)

**Q.** For `CCOc1nn(-c2ncc(CC)cn2)c(C)c1-c1ccc(F)cc1F` [example 154, 2-(4-(2,4-difluorophenyl)-3-ethoxy-5-methyl-1H-pyrazol-1-yl)-5-ethylpyrimidine], which MIC50 is on record?
**A.** > 5 µM

**Q.** For `CCOc1nn(-c2ccccn2)c(C)c1-c1ccccc1Cl` [example 155, 2-(4-(2-chlorophenyl)-3-ethoxy-5-methyl-1H-pyrazol-1-yl)pyridine], which MIC50 is on record?
**A.** > 5 µM

**Q.** For `CCOc1nn(-c2ccccn2)c(C)c1-c1cccc(Cl)c1` [example 156, 2-(4-(3-chlorophenyl)-3-ethoxy-5-methyl-1H-pyrazol-1-yl)pyridine], which MIC50 is on record?
**A.** > 5 µM

**Q.** `CCOc1nn(-c2ccccn2)cc1-c1ccc(Cl)cc1` [example 157, 2-(4-(4-chlorophenyl)-3-ethoxy-1H-pyrazol-1-yl)pyridine] was tested. Which MIC50 did it give?
**A.** > 5 µM

**Q.** For `CCOc1nn(-c2ccccn2)c(C)c1-c1cccc(C(F)(F)F)c1` [example 158, 2-(3-ethoxy-5-methyl-4-(3-(trifluoromethyl)phenyl)-1H-pyrazol-1-yl)pyridine], which MIC50 is on record?
**A.** > 5 µM

**Q.** `CCOc1nn(-c2ccccn2)c(C)c1-c1ccc(C(F)(F)F)cc1` [example 159, 2-(3-ethoxy-5-methyl-4-(4-(trifluoromethyl)phenyl)-1H-pyrazol-1-yl)pyridine] was tested. Which MIC50 did it give?
**A.** > 5 µM

— patent publication EP2929883A1, “Pyrazole derivatives as dihydroorotate dehydrogenase (DHODH) inhibitors” (INSTITUT PASTEUR, priority 2014, dated 2015)
